Source: patent publication US20250041282A1, “METHOD FOR TREATING INFLAMMATORY PULMONARY DISEASE” (FU JEN CATHOLIC UNIVERSITY, priority 2021, published 2025)

How the values were obtained:
[1] = system: RAW264.7 macrophages; experiment: ELISA of cytokines in cell culture media; assay type: cell-based, mouse; conditions: pretreated 30 min, 100 ng/ml LPS 24 h; FIG. 5A/5B
Experimental: RANTES (RayBiotech), IL-1β and IL-6 (eBioscience, San Diego, CA, USA) concentrations in cell culture media and mouse serum were measured using ELISA kits according to the manufacturer's instructions. The plates were measured at […] using an Epoch microplate spectrophotometer (BioTek Instruments, Winooski, VT, USA). The concentrations of RANTES, IL-1β and IL-6 in the samples were determined by standard curves.
For identifying the potential signaling pathways which regulate the secretion of IL-6 and RANTES induced by LPS stimulation, RAW264.7 macrophages were pretreated with various kinase inhibitors for 30 min and then stimulated with/without 100 ng/ml LPS for 24 h; the cell culture media was harvested for ELISA assay. […] (FIG. 6A). To investigate whether FJU-C28 could mediate the transcriptional activity of NF-κB (p65), the translocation of NF-κB p65 was examined in LPS-stimulated macrophages.

[2] = system: RAW264.7 macrophages; experiment: Western blotting of LPS-stimulated macrophage lysates; assay type: cell-based, mouse; conditions: LPS-induced RAW264.7; FIG. 6D
Description: In brief, cell lysate was separated by 10% SDS-PAGE and transferred to a PVDF membrane (Hybond™-P, Amersham, Piscataway, NJ, USA). The blots were probed with anti-p38 (Catalogue Number: 8690P), anti-p-p38 (Thr180/Tyr182; Catalogue Number: 4511P), anti-ERK44/42 (Catalogue Number: 4695P), anti-p-ERK44/42 (Thr202/Tyr204; Catalogue Number: 4370P), anti-JNK (Catalogue Number: 9258P), anti-p-JNK (Thr183/Tyr185; Catalogue Number: 4668P), anti-p65 (Catalogue Number: 8242S), anti-STAT3 (Catalogue Number: 12640S), anti-p-STAT3 (Tyr705; Catalogue Number: 9145S) and anti-RANTES (Catalogue Number: 2989S) antibodies were provided by Cell Signaling Technology, Inc. (Danvers, MA, USA). Anti-Lamin A/C (Catalogue Number: 101127) antibodies were obtained from GeneTex, Inc. (San Antonio, TX, USA). Anti-β-Actin (Catalogue Number: SC-47778) and anti-COX2 (Catalogue Number: SC-1746) antibody was obtained from Santa Cruz Biotechnology, Inc. (Dallas, Texas, USA). The anti-iNOS (Catalog Number: 610329) antibody was obtained from BD transduction Lab. (San Jose, CA, USA). Bound antibodies were visualized by […] staining (Western Lighting Plus ECL; PerkinElmer, Wellesley, MA, USA) with autoradiography using FUJI Medical X-ray film (Fuji Corporation, Kofu, Yamanashi, Japan) or a MultiGel-21 multifunctional imaging system (TOPBIO, New Taipei, Taiwan). The intensity of the western blot bands was quantified by ImageJ software. The quantitative immunoblot data were normalized to the internal control protein and are expressed as the relative ratio of the treatment group to the control. The data represent the mean±S.D. of at least three independent experiments.

SMILES | LPS-induced expression of IL-6 (ELISA), kinase inhibitors [1] | LPS-induced expression of RANTES (ELISA), kinase inhibitors [1] | LPS-induced phosphorylation of STAT3 [2]
Cc1ccc(S(=O)(=O)/C=C/C#N)cc1 [BAY11-7082] | suppressed | suppressed | 
CCOC(=O)C1=CCCC[C@H]1S(=O)(=O)Nc1ccc(F)cc1Cl [CLI-095] | suppressed | suppressed | 
COc1cccc(-c2cc(=O)c3ccccc3o2)c1N [PD98059] | not |  | slightly suppressed
C[S+]([O-])c1ccc(-c2nc(-c3ccncc3)c(-c3ccc(F)cc3)[nH]2)cc1 (stereo not drawn) [SB203580] | suppressed | suppressed | inhibited
